For data set [1], the target named is T1, GnRH-RI expressed on human prostate cancer (Homo sapiens, UniProt P30968).
T1 construct: Tissue samples of human prostate cancer cells were obtained from a patient at the time of initial surgical treatment; from tissue; host or cells: human prostate cancer surgical specimen, cell membrane homogenate
T1 sequence (P30968 1-328): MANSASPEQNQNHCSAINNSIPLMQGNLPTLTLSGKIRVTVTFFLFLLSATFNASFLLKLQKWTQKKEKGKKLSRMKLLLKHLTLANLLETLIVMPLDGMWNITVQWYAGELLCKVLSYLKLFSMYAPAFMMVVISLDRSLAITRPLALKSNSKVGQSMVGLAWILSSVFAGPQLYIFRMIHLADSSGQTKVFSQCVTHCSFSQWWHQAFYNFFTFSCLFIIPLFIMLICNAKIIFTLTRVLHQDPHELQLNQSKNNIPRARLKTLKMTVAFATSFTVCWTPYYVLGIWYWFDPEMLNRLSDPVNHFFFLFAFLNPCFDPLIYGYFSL
Also noted: method as in PMID 10647698, PMID 20859992. The settings on record: concentrations up to 1 µM; cited from earlier work.

In data set [2] the target is T1, GnRH-RI expressed on human prostate cancer. Description: Radioligand competition with [125I]-triptorelin, human prostate cancer membranes. The class given is binding. The settings on record: membrane fractions of human prostate cancer specimens, Figure 5. As to the method:
Ligand competition assays with radiolabeled triptorelin were performed to evaluate the binding affinity of K2 and 10 to GnRH-RI expressed on human pituitary and human prostate cancer cells as reported earlier. Tissue samples of human prostate cancer cells were obtained from a patient at the time of initial surgical treatment and normal human pituitary tissue (anterior lobe) derived by autopsy. All subjects gave their informed consent for inclusion before they participated in the study. The collection and the use of these specimens for our studies were conducted in accordance with the Declaration of Helsinki and approved by the local Institutional Ethics Committee (UD REC/IEC 4831-2017). To study the binding affinity of the compounds, cell membrane homogenates were prepared as previously described. Apart from that, triptorelin was radioiodinated using the chloramine-T method, followed by purification by RP-HPLC [34, 40, 41, 44]. To determine the binding affinities of the nonradio-labeled GnRH-III bioconjugates to GnRH-RI, the displacement of [^125I]-GnRH-I-[^6D-Trp] was studied by an in vitro ligand competition assay. […] To determine the protein concentration by the method of Bradford, a Bio-Rad protein assay kit (Bio-Rad Laboratories, USA) was used. The LIGAND-PC computerized curve-fitting program of Munson and Rodbard was used to determine the receptor binding characteristics and IC50 values.
Background: Displacement assays read how much labelled ligand stays bound in the presence of the test substance.

The subject of data set [3] is MCF-7 human breast cancer cells. The format is cell-based. The settings on record: 24 h treatment in serum-free medium (0.068–150 µM), then 48 h in complete medium; alamarBlue fluorescence; mean ± SE, performed twice, four parallels. As to the method: (§1) Dulbecco’s Modified Eagle Medium (DMEM, Lonza, Basel, Switzerland), supplemented with 10% (v/v) Fetal Bovine Serum (FBS, Lonza), L-glutamine (2 mM, Lonza), non-essential amino acids (NEAA, Sigma-Aldrich Kft), sodium pyruvate (1 mM, Lonza) and Penicillin-Streptomycin (Lonza) was used to culture MCF-7 human breast adenocarcinoma cells (ATCC:HTB-22). HT-29 human colon adenocarcinoma cells (ATCC:HTB-38) were maintained in RPMI-1640 (Lonza), supplied with 10% FBS, L-glutamine and Penicillin-Streptomycin. MDA-MB-231 breast adenocarcinoma cells were cultured in DMEM (Lonza), supplemented with 10% FBS and Penicillin-Streptomycin. Cells were maintained in plastic culture dishes at 37 °C with a humidified atmosphere containing 5% CO2/95% air.
(§2) 5 × 10^3 cells per well were seeded to 96-well plates (Sarstedt, Nümbrecht, Germany), in a complete cell medium. After 24 h, the cells were treated with bioconjugates in a serum-free medium (concentration range 0.068–150 µM, control wells were treated with a serum-free medium). On the next day, cells were washed two times with a serum-free medium and incubated in a complete medium for 48 h. The cell viability was determined using alamarBlue reagent® (ThermoFisher Scientific) by following the manufacturer’s instructions. A Synergy H4 multi-mode microplate reader (BioTek, Winooski, VT, USA) was used for fluorescence detection (λEx = 570 and at λEM = 620 nm). Experiments were performed twice, using four parallels per concentration. Cell viabilities (and IC50 values) were calculated with Origin Pro8 (OriginLab Corp., Northampton, MA, USA.) using a nonlinear regression (sigmoidal dose–response).
For orientation: Resazurin is reduced to fluorescent resorufin, in cell work by metabolically active cells.

Data set [4] relates to HT-29 human colon cancer cells. The class given is cell-based. As to conditions: 24 h treatment in serum-free medium (0.068–150 µM), then 48 h in complete medium; alamarBlue fluorescence; mean ± SE, performed twice, four parallels. As to the method: as §1, §2
Data set [5] concerns MDA-MB-231 human breast cancer cells. The class given is cell-based. As to conditions: 24 h treatment in serum-free medium (0.068–150 µM), then 48 h in complete medium; alamarBlue fluorescence; mean ± SE, performed twice, four parallels. On the procedure:
as §1, §2

Data set [6] in a line: rat liver lysosomal homogenate in 0.2 M NH4OAc buffer (pH 5). As to conditions: 37 °C, up to 24 h.
The nature of data set [7]: 90% human plasma. As to conditions: 37 °C, up to 24 h.

Entries after “also recorded” stand apart in the source; their conditions may differ. Square brackets hold non-standard residues; d marks the D form. Peptide text beside a SMILES is read from it. * marks the point of attachment. Daunorubicin(13-NOCH2CO) = COc1cccc2c1C(=O)c1c(O)c3c(c(O)c1C2=O)C[C@@](O)(C(C)=NOCC(=O)*)C[C@@H]3O[C@H]1C[C@H](N)[C@H](O)[C@H](C)O1; pGlu = O=C1CC[C@@H](C(=O)O)N1; Butyryl = CCCC(=O)*

Turning to bombesin, the displacement of triptorelin result in data set [1] is “not able to displace triptorelin”.

For the compound epidermal growth factor, the “displacement of [125I]-GnRH-I-[6D-Trp] binding” value in data set [2] is “did not displace the radioligand”.

For orientation: IC50 means the concentration at which inhibition is half-maximal. As for `CCCC(=O)NCCCC[C@H](NC(=O)[C@H](Cc1c[nH]c2ccccc12)NC(=O)[C@H](Cc1c[nH]cn1)NC(=O)[C@@H]1CCC(=O)N1)C(=O)N[C@@H](Cc1c[nH]cn1)C(=O)N[C@@H](CC(=O)O)C(=O)N[C@@H](Cc1c[nH]c2ccccc12)C(=O)N[C@@H](CCCCNC(=O)CON=C(C)[C@]1(O)Cc2c(O)c3c(c(O)c2[C@@H](O[C@H]2C[C@H](N)[C@H](O)[C@H](C)O2)C1)C(=O)c1c(OC)cccc1C3=O)C(=O)N1CCC[C@H]1C(=O)NCC` [compound 14] ([pGlu]HWK(Butyryl)HDWK(Daunorubicin(13-NOCH2CO))P-NHEt), the IC50 in data set [3] stood at 2230 ± 400 nM; in data set [4], 17.84 ± 0.08 µM; in data set [5] it was 12.4 ± 2.3 µM.

As to somatostatin-14, the displacement of triptorelin result in data set [1] is on record as “not able to displace triptorelin”.

Regarding human growth hormone, in data set [2], the “displacement of [125I]-GnRH-I-[6D-Trp] binding” value was “did not displace the radioligand”.

Turning to <EHWK(Bu)HDWK(Dau=Aoa)PG-NH2, the cleaved bond result in data set [6] is given as “Pro9-Gly10; also recorded: His2-Trp3; also recorded: Trp3-Lys(Bu)4; also recorded: Lys(Bu)4-His5, first_seen, 5 min; also recorded: His5-Asp6; also recorded: Asp6-Trp7; also recorded: Trp7-Lys(Dau=Aoa)8; also recorded: Lys(Dau=Aoa)8-Pro9”. Moreover, in data set [7], the not cleaved entry was “stable for at least 24 h”.

Take somatostatin [reference compound]: in data set [2], the “displacement of [125I]-GnRH-I-[6D-Trp] binding” value is given as “did not displace the radioligand”.

For <E-D-Tic-K(Bu)HDWK(Dau=Aoa)PG-NH2, in data set [6], the cleaved bond result is “Lys(Bu)4-His5; also recorded: His5-Asp6; also recorded: Asp6-Trp7; also recorded: Trp7-Lys(Dau=Aoa)8; also recorded: Lys(Dau=Aoa)8-Pro9; also recorded: Pro9-Gly10” and the fragment found result is “<E-D-Tic-K(Bu)HDWK(Dau=Aoa)-OH; also recorded: <E-D-Tic-K(Bu)HD-OH; also recorded: <E-D-Tic-K(Bu)H-OH; also recorded: H-K(Dau=Aoa)P-OH; also recorded: H-Lys(Dau=Aoa)-OH, 1 h”. Besides, the not cleaved result in data set [7] is listed as “stable for at least 24 h”.

The values are drawn from PMC6320914 (Pharmaceutics, 2018).
